This note sets out measurements from patent US5804601A, “Aromatic hydroxamic acid compounds, their production and use” (Takeda Chemical Industries, Ltd., priority 1995, dated 1998).

Assay [1] concerns rat mixed cerebral cell culture. Kind of assay: Neutralizing effect on LPS-induced cytotoxicity in a rat mixed cerebral cell culture system (LIC assay), MTT method. The assay is classed as cell-based. The following applies: concentration giving a recovery rate of 50%, usually 4-5 days incubation, read-out: ED50 (the source's name). The procedure:
Neutralizing effect on lipopolysaccharide (LPS)--induced cytotoxicity in a rat mixed cerebral cell culture system (LIC assay)
LPS, a substance known to activate glial cells (astrocytes, microglia), was added to a rat mixed cerebral cell culture system and the compounds which would neutralize the cytotoxicity induced by LPS were screened by the following method.
(1) Neonatal rat mixed cerebral cell culture
From neonatal Crj:CD (SD) rats (1-3 days old, Charles-River Japan, Ltd.), the brains were isolated and placed in ice-cold D-MEM/10% FCS (Dulbecco's cell culture minimal essential medium supplemented with 10% of fetal calf serum, 100 units/ml of penicillin and 100 μg/ml of streptomycin). Then, mixed cerebral cell cultures were carried out in the following steps.
1. The cerebrums were separated from the enucleated brains and the meninges was removed under the stereoscopic microscope.
2. The cerebrums were placed in a nylon-mesh (100-200 μm) bag to filter with the aid of a rubber policeman.
3. Using ice-cold D-MEM/10% FCS, the cells were washed 3 times (1000 rpm, 8 min.). Then, this cell suspension was filtered through a cell strainer (40 μm mesh, Falcon 2340) and the number of viable cells was counted by the trypan blue method.
4. The cells, were seeded in wells of a 96-well microtiter plate (Nunc) at a cell density of 1×10^5 cells/100 μl/well, and started a cell culture at 37° C.
5. One week later, 100 μl/well of D-MEM/10% FCS was added.
6. The plate was further incubated for about 1-2 weeks and the neutralizing activity of the test compound was evaluated by the following method.
(2) Evaluation of neutralizing activity in LPS-induced cytotoxicity
1. Following the rat mixed cerebral cell culture described in (1) (after 2-3 weeks of incubation), the medium was discarded from the respective wells of the 96-well microtiter plate, and 50 μl/well of fresh D-MEM/2% FCS was added.
2. A test sample and LPS (Difco, E. coli 011: B4, Bacto) of a suitable concentration, 25 μl each per well, were respectively added. D-MEM/2% FCS was used as the medium.
As the test sample, each of the compounds shown in Table 32 was dissolved in DMSO at a concentration of 10 ^-2 M and the solution was diluted with D-MEM/2% FCS and submitted for assay.
3. After a suitable period (usually 4-5 days) of incubation, the degree of cytotoxic effect was assessed by the microscopic observation, and MTT method.
(3) MTT [3-(4,5-dimethylthiazol-2-yl)-2,5-diphenyltetra zolium bromide] method
Ten μl of MTT solution (5 mg/ml, Sigma) dissolved in phosphate-buffered saline was added to each well. After 4-6 hours of incubation (37° C., under 10% CO2), 100 μl/well of 0.01N-hydrochloric acid containing 10% SDS was added, whereby the formed formazan was dissolved. After complete dissolution, the absorbance (540-590 nm) was measured for each well.
The ED50 values were determined by calculating the recovery rates by means of the following equation and plotting the concentrations of compounds giving a recovery rate of 50% on graph paper.
Recovery rate (%)=(C-B)×100/(A-B)
[A: the absorbance at 550 nm of the control well to which only the medium had been added
B: the absorbance at 550 nm of the well to which LPS had been added
C: the absorbance at 550 nm of the well to which both LPS and the test compound had been added]
(Tetrazolium dyes change colour on reduction, which living cells bring about.)

The subject of another assay is TNFα. Kind of assay: LPS-induced TNFα production in the rat mixed cerebral cell culture system (ELISA). The following applies: LPS 10 μg/ml, 24 hours. The assay is classed as cell-based. As to the method: Rat mixed cerebral cell cultures on day 15 after starting cell cultures were used. After removal of the medium, LPS (E. coli 011: B4, Bacto) (Difco Laboratories), 10 μg/ml, and Compound A, 10^-6 or 10^-7 M, were simultaneously added and the final volume was adjusted to 100 μl. After 24 hours of incubation at 37° C., the culture supernatant was collected as a sample for ELISA. The assay for determining TNFα amount was made using Mouse TNFα ELISA Kit (Genzyme) in accordance with its assay protocol.
On the technique in general: ELISA stands for enzyme-linked immunosorbent assay.

Assay [2] relates to apomorphine-induced circling in rats pretreated with LPS infused into the unilateral striatum. Nature of the assay: Inhibitory effect on the apomorphine-induced circling in rats pretreated with LPS infused into the unilateral striatum. The assay is classed as in vivo, rat. The following applies: for Number of ipsilateral circlings (mean ± S.E.): 3 times, LPS 5 μg, apomorphine 1 mg/kg s.c., 30-minute period, n=4. The procedure:
Inhibitory effect on the apomorphine-induced circling in rats pretreated with LPS infused into the unilateral striatum Male Wistar rats (8-9 weeks old) weighing 250-280 g at the operation for LPS infusion were submitted to the experiment. Throughout the experimental period, the animals were group-fed in a vivarium controlled at 24±1° C. and 55±1% R.H., with a light-dark cycle of 12 hr (7:00-19:00 ON) and free access to food (Clea Japan, Inc., CE-2 pellets) and water (tap water). Under pentobarbital (50 mg/kg, i.p.) anesthesia, the rat's head was immobilized in David Kopf's brain stereotaxic apparatus for small animal use and with reference to Pellegrino & Cushman's brain atlas, a 30 G stainless steel needle was indwelled in the unilateral striate body (A8.2, L2.8, H4.3). The infusion amount of LPS was set at 5 μg. LPS was dissolved in 1 μl of phosphate-buffered saline (PBS, pH 7.2) and the solution was infused gradually at a speed of 0.2 μl/min. The infusion needle was kept in position till 3 minutes following infusion and withdrawn only after sufficient diffusion of the drug solution had taken place. After 7-8 days postoperatively, 1 mg/kg of apomorphine was administered subcutaneously and the number of induced circling behavior during a 30-minute period immediately following administration were determined with an automatic counter. Compound A was suspended in 5% aqueous gum arabic solution and the suspension was administered either orally or intraperitoneally at a dose rate of 0.2 ml per 100 g rat body weight. This administration was carried out 3 times, namely 30 minutes before infusion of 5 μg LPS and 3 and 24 hours after the infusion. As a control, physiological saline solution alone was administered intraperitoneally.

The test system of assay [3] is NO (nitric oxide) production. Kind of assay: Inhibitory effect on LSP-induced NO (nitric oxide) production in a rat mixed cerebral cell culture system. The following applies: 120 h, LSP 5 μg/ml, 5 days, combined NO3^- and NO2^- in culture supernatant, read-out: inhibition concentration (IC50) against LSP-induced NO production. The assay is classed as cell-based. As to the method:
Inhibitory effect on LSP-induced NO (nitric oxide) production in a rat mixed cerebral cell culture system
(1) Rat mixed cerebral cell culture
Rat mixed cerebral cell cultures were prepared by the procedure described in Experimental Example 1.
1. Twenty (20) days after initiation of rat mixed cerebral cell culture, the medium was removed from each well of the 96-well microtiter plate and, instead, 125 μl/well of D-MEM/2% FCS containing 5 μg/ml (final concentration) of LSP (Difco, E. coli 011: B4, Bacto) and a suitable dilution of the test compound was added. As the test sample, a stock DMSO solution of 10^-2 M concentration was prepared and diluted with D-MEM/2% FCS.
2. After a further 5 days of cell culture, the combined amount of NO3^- and NO2^- in the culture supernatant was determined with the NO3^- NO2^- Assay Kit (Cayman Chemical, Catalog No. 780001, U.S.A.). The assays were carried out in accordance with the accompanying protocol.
The IC50 values were determined from a plot of the concentrations of the test compound which caused a 50% decrease in the combined amount of […] and NO3^- in the culture supernatant as compared with the well to which LSP alone had been added in a final concentration of 5 μg/ml without addition of compound A.

In the case of `COc1ccc(C(CCCCC(=O)NO)C2=C(C)C(=O)c3ccccc3C2=O)cc1` (stereo not shown) [Compound A, 6-(3-Methyl-1,4-naphthoquinon-2-yl)-6-(4-methoxyphenyl)hexanohydroxamic acid], the EC50 in assay [1] turned out to be 20 nM. Besides, the results for the TNFα in the assay with TNFα (Compound A 10^-6 M) and in the assay with TNFα (Compound A 10^-7 M) were 230 pg/mL and 790 pg/mL, respectively. The results for the “Number of ipsilateral circlings (mean ± S.E.)” value in assay [2] (i.p. (3 mg/kg)) and in assay [2] (p.o. (30 mg/kg)) were 44 ± 15 and 65 ± 21, respectively. In assay [2] (rat, in vivo), the “LPS-induced injury of the unilateral striatum (in words)” value is recorded as “significantly attenuated”. In addition, the IC50 in assay [3] amounted to 80 nM.
